These results are taken from US7244767B2 (priority 1998, dated 2007).

For one series, the system named is T-47D cells. The series is described as follows: Proliferation of human breast carcinoma cells, [3H]-thymidine incorporation, T-47D. In kind it is cell-based. As to the method:
(§1) Human breast carcinoma cells MCF-7, EFM-19 and T-47D were used. The cells were cultured and the tests were carried out as described previously [materials and methods L. De Petrocellis et al. (1998) Proc. Natl. Acad. Sci. U.S.A., 95: 8375-8380]. The activity with respect to the proliferation of the tumour cells was evaluated on the basis of the incorporation of [^3H]-thimidine. The results are expressed as IC50 in μM.
(In general: Dividing cells build labelled thymidine or BrdU into new DNA.)

In the next series the test system is MCF-7 cells. The series is described as follows: Proliferation of human breast carcinoma cells, [3H]-thymidine incorporation, MCF-7. Format: cell-based. The note with it: MCF-7, [3H]-thymidine incorporation. As to the method: as §1
For series [1], the system named is EFM-19 cells. Briefly: Synergistic effect of PEA on antiproliferative activity in EFM-19 cells. In kind it is cell-based, human. The note with it: for Proliferative activity %: control = 100. As to the method: as §1
Human breast carcinoma cells EFM-19 were used. The test was carried out as indicated in Example C above.

The next series relates to DU-145 cells. Briefly: Proliferation of human prostate carcinoma cells DU145 with prolactin, cell count. In kind it is cell-based. The procedure: Human prostate carcinoma cells DU145 were used. The cells were cultured as described previously [materials and methods T. Janssen et al. (1996) Cancer, 77: 144-149].
The cells were then incubated in 96-well plates with Eagle's Minimal Essential Medium (MEM) supplemented with 10% foetal calf serum free of endogenous steroids. After 24 hours, the medium was removed and replaced with a medium containing prolactin (PRL) (1 mIU/ml of medium). The layer of cells was trypsinized and the cells were counted by haemocytometry.
The results are expressed as IC50 in μM.

Series [2] concerns EFM-19 cells. The series is described as follows: Proliferation of human breast carcinoma cells, [3H]-thymidine incorporation, EFM-19. In kind it is cell-based. The note with it: EFM-19, [3H]-thymidine incorporation. As to the method: as §1
In the next series the target is T1, cannabinoid receptor CB1 (Mus musculus, UniProt P47746).
T1 construct: endogenous in cells; host or cells: N18TG2 mouse neuroblastoma cells
T1 sequence (P47746 whole entry): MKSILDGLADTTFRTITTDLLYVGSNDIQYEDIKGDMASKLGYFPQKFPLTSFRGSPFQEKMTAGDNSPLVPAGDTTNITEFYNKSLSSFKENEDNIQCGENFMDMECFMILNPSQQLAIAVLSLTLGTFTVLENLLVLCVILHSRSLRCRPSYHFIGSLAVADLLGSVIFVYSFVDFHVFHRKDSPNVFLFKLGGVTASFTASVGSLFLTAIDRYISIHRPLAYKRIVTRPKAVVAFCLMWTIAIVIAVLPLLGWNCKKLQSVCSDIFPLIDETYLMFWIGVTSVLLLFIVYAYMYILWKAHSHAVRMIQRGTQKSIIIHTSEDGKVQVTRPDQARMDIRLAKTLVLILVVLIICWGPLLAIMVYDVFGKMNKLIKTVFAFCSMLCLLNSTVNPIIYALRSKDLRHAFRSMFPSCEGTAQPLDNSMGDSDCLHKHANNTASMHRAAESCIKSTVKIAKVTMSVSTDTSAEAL
The series is described as follows: Binding to cannabinoid receptor CB1, displacement of [3H]SR141716A on N18TG2 cell membranes. The note with it: 300 pM [3H]SR141716A, 90 min at 30° C., read-out: Ki, CB1 receptor, N18TG2 + cells, [3H]SR141716A ligand. As to the method: Mouse neuroblastoma cells N18TG2 which selectively express the cannabinoid receptor CB1 and rat leukaemia basophil cells RBL-2H3+ which selectively express the cannabinoid receptor CB2 were used. […] The binding tests were carried out with membranes of the said cells resuspended in 50 mM pH 7.0 Tris buffer; 2.5 mM mgCl2; 0.8 mM EDTA; 0.05% bovine serum albumin (BSA); 0.01% ethanol and in the presence of 100 μM phenylmethylsulphonyl fluoride (PMSF; sigma) using 300 pM of [^3H]SR141716A and [^3H]WIN55,212-2, respectively, as ligand.
(§2) The membranes were incubated for 90 min at 30° C., filtered on glass microfibre filters (GFC-Whatman) and the radioactivity was measured by liquid scintillation. The specific binding was calculated using either 10 μM SR141716A or 10 μM HU-210 (obtained from Prof. R. Mechoulam, Hebrew University Jerusalem). The Ki values were calculated using the Chang-Prusoff equation and expressed as concentration μM.
Background: Loss of bound radioactivity is the signal in a displacement assay; it reports binding, not function.

Series [3] can be described thus: Solubility (physicochemical properties of the product).
The target in another series is T2, cannabinoid receptor CB2 (Rattus norvegicus, UniProt Q9QZN9).
T2 construct: endogenous in cells; host or cells: RBL-2H3 rat basophilic leukaemia cells
T2 sequence (Q9QZN9 1-360): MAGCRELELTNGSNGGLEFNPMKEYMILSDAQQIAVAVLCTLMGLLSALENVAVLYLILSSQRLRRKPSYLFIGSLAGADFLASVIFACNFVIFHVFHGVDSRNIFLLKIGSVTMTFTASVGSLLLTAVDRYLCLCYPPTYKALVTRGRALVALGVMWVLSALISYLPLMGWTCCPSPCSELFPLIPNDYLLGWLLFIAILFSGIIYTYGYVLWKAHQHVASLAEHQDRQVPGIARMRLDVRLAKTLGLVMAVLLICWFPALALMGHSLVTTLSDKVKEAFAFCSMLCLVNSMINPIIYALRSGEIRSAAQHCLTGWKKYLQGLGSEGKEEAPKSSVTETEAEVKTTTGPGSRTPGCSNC
The series is described as follows: Binding to cannabinoid receptor CB2, displacement of [3H]WIN55,212-2 on RBL-2H3 cell membranes. The note with it: read-out: Ki, CB2 receptor, RBL-2H3 + cells, [3H]WIN55,212-2 ligand. As to the method: Mouse neuroblastoma cells N18TG2 which selectively express the cannabinoid receptor CB1 and rat leukaemia basophil cells RBL-2H3+ which selectively express the cannabinoid receptor CB2 were used. The cells were cultured as described previously [L. Faci et al. (1995) Proc. Natl. Acad. Sci. U.S.A., 92: 3376-3380; T. Bisogno et al. (1997) J. Biol. Chem., 272: 3315-3323]. [^3H]SR141716A (55 Ci/mmol) was supplied by Amersham; [^3H]WIN55, 212-2(43 Ci/mmol) was supplied by NEN. The binding tests were carried out with membranes of the said cells resuspended in 50 mM pH 7.0 Tris buffer; 2.5 mM mgCl2; 0.8 mM EDTA; 0.05% bovine serum albumin (BSA); 0.01% ethanol and in the presence of 100 μM phenylmethylsulphonyl fluoride (PMSF; sigma) using 300 pM of [^3H]SR141716A and [^3H]WIN55,212-2, respectively, as ligand.
as §2

The subject of series [4] is carrageenan-mediated locomotor hyperalgesia. In kind it is in vivo.
Series [5] concerns carrageenan-mediated oedema. Briefly: Carrageenan-mediated oedema, paw volume. In kind it is in vivo. The note with it: 5 mg/kg, oral, carrageenan = 100. The procedure: The method described previously [materials and methods S. Mazzari et al. (1996) Europ. J. Pharmacol., 300: 227-236] were used for the purpose of evaluating the effects of N-AVAM molecules on the hyperreactivity of sensitive nerve cells.
The test compounds were administered orally suspended in physiological saline densified with CMC. The results are expressed as a percentage of variation in the volume of the paw relative to carrageenan.
Background: In the carrageenan paw model, swelling and tenderness develop within hours.

The target in a further series is T3, receptor CB1 (Mus musculus, UniProt P47746).
T3 construct: endogenous in cells; host or cells: N18TG2 mouse neuroblastoma cells
T3 sequence (P47746 whole entry): as the sequence (P47746 whole entry) above
The series is described as follows: Effect on stimulation of cyclic AMP by forskolin in N18TG2 cells. In kind it is cell-based. To be noted: 1 μM forskolin, 10 min at 37° C.; read-out: IC50, c-AMP stimulated by forskolin, N18TG2 cells. As to the method:
The tests were carried out with the aim of checking whether or not the binding of the N-AVAM molecules to the receptor CB1 had any functional significance. […] After incubation, the cells were extracted and the c-AMP levels were evaluated using a suitable kit from Amersham according to the manufacturer's procedure. The data are expressed as IC50, in μM.

Setting [6] is: Homo sapiens, test compound alone 1.0 μM, control = 100, read-out: Proliferative activity %.
The mark [7] stands for this setting: membranes, 300 pM [3H]WIN55,212-2, 90 min at 30° C.

For orientation: IC50 means the concentration that gives 50% inhibition. In general, Ki refers to the dissociation constant of the complex between target and ligand, obtained from inhibition or displacement. As usually defined, the solubility is how much of the substance goes into solution per volume.

SMILES strings stand for the structures. “And” between values parts separate entries of the source, which are not always exact repeats. Equal values may be shown once. Read-outs that look alike come from different tables or passages of the source. Bounds are passed on as bounds.

As for `CCCCC/C=C\C/C=C\C/C=C\C/C=C\CCCC(=O)NCCO` [Anandamide, reference compound], the IC50 in the series on T-47D cells (Homo sapiens, T47D) was determined as 1900 nM; in the series with MCF-7 cells (Homo sapiens, MCF7), 500 nM; in the series on DU-145 cells (Homo sapiens, DU-145, prolactin 1 mIU/ml), 500 nM; with EFM-19 cells [2] (Homo sapiens) it was 1500 nM. In addition, the activity at 1 µM in the series with EFM-19 cells [1] (setting [6]) is 84%.

Take `COc1cc(CNC(=O)CCCC/C=C/C(C)C)ccc1O` [Capsaicin, reference compound]: the inhibitory constant (Ki) on cannabinoid receptor CB1 was above 10000 nM.

Turning to `CCCCCCCC/C=C\CCCCCCCC(=O)NCc1ccc(O)c(OC)c1` [Example 1, N-(4-hydroxy-3-methoxybenzyl)oleylamide], in [3] (in DMSO), the “Solubility in organic solvents, DMSO” value is above 10000 µg/mL. In addition, the “Solubility in organic solvents, ethanol” value in series [3] is above 10000 µg/mL. The Solubility in water entry in [3] was “sparingly soluble”. Moreover, the Ki was above 15000 nM at cannabinoid receptor CB2 (setting [7]) and 1640 ± 360 nM on cannabinoid receptor CB1. For the same compound, the “Percentage of variation in the administered weight (hyperalgesia)” value turned out to be 100% in series [4] (5 mg/kg, oral, 0 min); 80% in series [4] (5 mg/kg, oral, 60 min); 72% in [4] (5 mg/kg, oral, 120 min); 65% in series [4] (5 mg/kg, oral, 180 min); 58% in series [4] (5 mg/kg, oral, 240 min); 64% in [4] (5 mg/kg, oral, 300 min). Besides, the “Percentage of variation in the volume of the paw relative to carrageenan” value in series [5] (60 min) came out at 75%; in [5] (120 min) it was 70%; in series [5] (180 min), 65%. The IC50 in the series with T-47D cells is 1600 nM; in the series on MCF-7 cells, 1600 nM; with DU-145 cells (prolactin 1 mIU/ml), 200 to 300 nM; in the series with EFM-19 cells [2], 700 nM; at receptor CB1, 1600 nM. Besides, the Proliferative activity % with EFM-19 cells [1] (test compound alone 1.0 μM) turned out to be 60%.

As to `CCCCCCCCCCCCCCCC(=O)NCc1ccc(O)c(OC)c1` [Example 2, N-(4-hydroxy-3-methoxybenzyl)-palmitoylamide], the “Solubility in organic solvents, DMSO” value in series [3] (in DMSO) was above 10000 µg/mL. The “Solubility in organic solvents, ethanol” value in series [3] is above 10000 µg/mL. The Solubility in water result in [3] is given as “sparingly soluble”. The Ki on cannabinoid receptor CB2 (setting [7]) was above 15000 nM; at cannabinoid receptor CB1 it was 1750 ± 350 nM. In addition, the IC50 with T-47D cells was 800 nM; with MCF-7 cells it was 2100 nM; with EFM-19 cells [2], 1000 nM; at receptor CB1, 1800 nM.

On to `CCCCC/C=C\C/C=C\C/C=C\C/C=C\CCCC(=O)NCc1ccc(O)c(OC)c1` [Example 3, N-(4-hydroxy-3-methoxybenzyl)-arachidonoylamide], for which the “Solubility in organic solvents, DMSO” value in series [3] (in DMSO) was above 10000 µg/mL. Also, in [3], the “Solubility in organic solvents, ethanol” value was above 10000 µg/mL. The Solubility in water result in series [3] was “sparingly soluble”. Also, the Ki is above 15000 nM at cannabinoid receptor CB2 (setting [7]) and 1500 ± 290 nM at cannabinoid receptor CB1. Also, the IC50 with T-47D cells was found to be 300 nM; in the series on MCF-7 cells it was 400 nM; in the series with EFM-19 cells [2] it was 500 nM; at receptor CB1 it was 1300 nM. Besides, the Proliferative activity % is 70% in the series on EFM-19 cells [1] (test compound alone 0.5 μM) and 43% in the series with EFM-19 cells [1] (test compound alone 1.0 μM).

Take `COc1cc(CNC(=O)CCCCCCCC(=O)NCc2ccc(O)c(OC)c2)ccc1O` [Example 4, N,N′-bis(4-hydroxy-3-methoxybenzyl)-nonanediamide]: the solubility in series [3] (organic solvent or mixture, in DMSO, read-out: Solubility in organic solvents, DMSO) was above 10000 µg/mL. Also, the Solubility in water entry in series [3] is given as “sparingly soluble”. Further, on cannabinoid receptor CB1, the Ki was determined as 1200 ± 280 nM.

Consider `CCCCCCCCCCCCCCCC(=O)NCCO` [N-palmitoylethanolamine, reference compound], for which the Ki at cannabinoid receptor CB2 worked out at 1 ± 0.6 nM. The “Percentage of variation in the administered weight (hyperalgesia)” value in [4] (in vivo) was 100% and 82% and 80% and 76% and 64% and 66%. In addition, in the series on EFM-19 cells [1] (setting [6]), the activity at 1 µM turned out to be 100%. The activity at 2.5 µM with EFM-19 cells [1] (Homo sapiens, test compound alone 2.5 μM, control = 100, read-out: Proliferative activity %) is 100%. Also, the activity at 5 µM in the series with EFM-19 cells [1] (Homo sapiens, test compound alone 5.0 μM, control = 100, read-out: Proliferative activity %) amounted to 100%. The activity at 10 µM in the series with EFM-19 cells [1] (Homo sapiens, test compound alone 10 μM, control = 100, read-out: Proliferative activity %) stood at 100%.
